From patent US20170022171A1, “2,5-DISUBSTITUTED CYCLOPENTANECARBOXYLIC ACIDS AND THEIR USE” (Bayer Pharma Aktiengesellschaft, priority 2014, published 2017)

Biological target: T1, human macrophage elastase (HME/hMMP-12) (Homo sapiens, UniProt P39900)
T1 construct: 0.5 nM HME; purchased R&D Systems 917-MP
Assay: In vitro HME inhibition test (standard or high-sensitivity)
Type: biochemical
Conditions: in some cases mean values
Procedure: The potency of the compounds according to the invention with respect to HME (MMP-12) is determined in an in vitro inhibition test. The HME-mediated amidolytic cleavage of a suitable peptide substrate leads to an increase in fluorescent light therein. The signal intensity of the fluorescent light is directly proportional to the enzyme activity. The active concentration of a test compound at which half the enzyme is inhibited (50% signal intensity of the fluorescent light) is reported as the IC50 value.
In a 384 hole microtiter plate, in a total test volume of 41 the test buffer (0.1 M HEPES pH 7.4, 0.15 M NaCl, 0.03 M CaCl2, 0.004 mM ZnCl2, 0.02 M EDTA, 0.005% Brij®), the enzyme (0.5 nM HME; from R&D Systems, 917-MP, autocatalytic activation according to the manufacturer's instructions) and the intramolecularly quenched substrate [5 μM Mca-Pro-Leu-Gly-Leu-Glu-Glu-Ala-Dap(Dnp)-NH2; Bachem, M-2670] are incubated in the absence and presence of the test substance (as a solution in DMSO) at 37° C. for two hours. The fluorescence intensity of the test mixtures is measured (excitation […], emission 393 nm). The IC50 values are ascertained by plotting the fluorescent light intensity against the active ingredient concentration.
In this case, an enzyme concentration ten times lower is used (final concentration, for example, 0.05 nM) in order to achieve an elevated test sensitivity. The incubation period chosen for the test is correspondingly longer (for example 16 hours).

T1 sequence (P39900 106-470): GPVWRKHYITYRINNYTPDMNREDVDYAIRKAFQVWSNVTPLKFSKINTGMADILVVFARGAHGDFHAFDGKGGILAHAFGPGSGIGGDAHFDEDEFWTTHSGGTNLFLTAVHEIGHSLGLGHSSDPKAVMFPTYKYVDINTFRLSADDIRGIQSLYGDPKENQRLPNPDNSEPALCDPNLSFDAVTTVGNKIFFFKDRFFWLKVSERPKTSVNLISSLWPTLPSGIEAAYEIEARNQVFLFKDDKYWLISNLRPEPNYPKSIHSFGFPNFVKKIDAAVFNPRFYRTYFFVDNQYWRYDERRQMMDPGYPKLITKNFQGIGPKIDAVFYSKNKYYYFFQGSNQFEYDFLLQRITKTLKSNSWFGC

Going from `CCCCOc1ccc(C(=O)[C@@H]2CC[C@H](Cn3nnc4ccc(C(F)(F)F)cc4c3=O)[C@H]2C(=O)O)cc1` (single isomer, unassigned) [Example 68, (−)-(1RS,2RS,5SR)-2-(4-Butoxybenzoyl)-5-{[4-oxo-6-(trifluoromethyl)-1,2,3-benzotriazin-3(4H)-yl]methyl}cyclopentanecarboxylic acid] to `CCCCCCOc1ccc(C(=O)[C@H]2CC[C@@H](Cn3nnc4ccc(C(F)(F)F)cc4c3=O)[C@@H]2C(=O)O)cc1` (racemic) [Example 57, (+/−)-(1RS,2RS,5SR)-2-[4-(Hexyloxy)benzoyl]-5-{[4-oxo-6-(trifluoromethyl)-1,2,3-benzotriazin-3(4H)-yl]methyl}cyclopentanecarboxylic acid], the IC50 falls from 2.1 nM to 0.028 nM (75-fold). The second is the more potent here.

Compared with `CCCCCOc1ccc(C(=O)[C@H]2CC[C@@H](Cn3nnc4ccccc4c3=O)[C@@H]2C(=O)O)cc1` (racemic) [Example 7, (+/−)-(1RS,2SR,5RS)-2-[(4-Oxo-1,2,3-benzotriazin-3(4H)-yl)methyl]-5-[4-(pentyloxy)benzoyl]cyclopentanecarboxylic acid], `CCCCCCOc1ccc(C(=O)[C@H]2CC[C@@H](Cn3nnc4ccccc4c3=O)[C@@H]2C(=O)O)cc1` (racemic) [Example 6, (+/−)-(1RS,2RS,5SR)-2-[4-(Hexyloxy)benzoyl]-5-[(4-oxo-1,2,3-benzotriazin-3(4H)-yl)methyl]cyclopentanecarboxylic acid] is 1.5-fold lower in IC50: 0.26 nM for the first, 0.17 nM for the second. The second is the more potent here.

First: Cc1ccc2nnn(C[C@@H]3CC[C@H](C(=O)c4ccc(OCc5ccc(F)cc5)cc4)[C@H]3C(=O)O)c(=O)c2c1 (racemic) [Example 94, (+/−)-(1RS,2RS,5SR)-2-{4-[(4-Fluorobenzyl)oxy]benzoyl}-5-[(6-methyl-4-oxo-1,2,3-benzotriazin-3(4H)-yl)methyl]cyclopentanecarboxylic acid]
Second: Cc1cccc(COc2ccc(C(=O)[C@@H]3CC[C@H](Cn4nnc5ccc(C)cc5c4=O)[C@H]3C(=O)O)cc2)c1 (single isomer, unassigned) [Example 99, (−)-(1RS,2RS,5SR)-2-{4-[(3-Methylbenzyl)oxy]benzoyl}-5-[(6-methyl-4-oxo-1,2,3-benzotriazin-3(4H)-yl)methyl]cyclopentanecarboxylic acid]
The IC50 of the first is 3800-fold lower: 0.055 nM for the first, 210 nM for the second. The first is the more potent here.

Compared with `O=C(O)[C@@H]1[C@@H](Cn2nnc3ccc(C(F)(F)F)cc3c2=O)CC[C@H]1C(=O)c1ccc(OCC2CCCCC2)cc1` (single isomer, unassigned) [Example 42, (−)-(1RS,2RS,5SR)-2-[4-(Cyclohexylmethoxy)benzoyl]-5-{[4-oxo-6-(trifluoromethyl)-1,2,3-benzotriazin-3(4H)-yl]methyl}cyclopentanecarboxylic acid], `O=C(O)[C@H]1[C@H](Cn2nnc3ccc(C(F)(F)F)cc3c2=O)CC[C@@H]1C(=O)c1ccc(SCc2ccccc2)cc1` (racemic) [Example 73, (+/−)-(1RS,2RS,5SR)-2-[4-(Benzylsulphanyl)benzoyl]-5-{[4-oxo-6-(trifluoromethyl)-1,2,3-benzotriazin-3(4H)-yl]methyl}cyclopentanecarboxylic acid] is 230-fold lower in IC50: 39 nM for the first, 0.17 nM for the second. The second is the more potent here.

Compared with `Cc1ccc2nnn(C[C@H]3CC[C@@H](C(=O)c4ccc(OCc5cccc(OC(F)(F)F)c5)cc4)[C@@H]3C(=O)O)c(=O)c2c1` (single isomer, unassigned) [Example 111, (−)-(1RS,2SR,5RS)-2-[(6-Methyl-4-oxo-1,2,3-benzotriazin-3(4H)-yl)methyl]-5-(4-{[3-(trifluoromethoxy)benzyl]oxy}benzoyl)cyclopentanecarboxylic acid], `O=C(O)[C@H]1[C@H](Cn2nnc3ccc(C(F)(F)F)cc3c2=O)CC[C@@H]1C(=O)c1ccc(OCc2ccc(Cl)cc2)cc1` (racemic) [Example 24, (+/−)-(1RS,2RS,5SR)-2-{4-[(4-Chlorobenzyl)oxy]benzoyl}-5-{[4-oxo-6-(trifluoromethyl)-1,2,3-benzotriazin-3(4H)-yl]methyl}cyclopentanecarboxylic acid] is 9300-fold lower in IC50: 140 nM for the first, 0.015 nM for the second. The second is the more potent here.

`O=C(O)[C@H]1[C@H](Cn2nnc3ccc(C(F)(F)F)cc3c2=O)CC[C@@H]1C(=O)c1ccc(OCC2CCC2)cc1` (racemic) [Example 46, (+/−)-(1RS,2RS,5SR)-2-[4-(Cyclobutylmethoxy)benzoyl]-5-{[4-oxo-6-(trifluoromethyl)-1,2,3-benzotriazin-3(4H)-yl]methyl}cyclopentanecarboxylic acid] and `CC(C)CCOc1ccc(C(=O)[C@@H]2CC[C@H](Cn3nnc4ccc(C(F)(F)F)cc4c3=O)[C@H]2C(=O)O)cc1` (single isomer, unassigned) [Example 61, (+)-(1RS,2RS,5SR)-2-[4-(3-Methylbutoxy)benzoyl]-5-{[4-oxo-6-(trifluoromethyl)-1,2,3-benzotriazin-3(4H)-yl]methyl}cyclopentanecarboxylic acid] are within 1.5-fold of each other in IC50: 0.034 nM for the first, 0.032 nM for the second.

Going from “(−)-(1RS,2SR,5RS)-2-{[4-Oxo-6-(trifluoromethyl)-1,2,3-benzotriazin-3(4H)-yl]methyl}-5-{4-[(2-phenylethy)sulphanyl]benzoyl}cyclopentanecarboxylic acid [Example 84]” to `O=C(O)[C@H]1[C@H](Cn2nnc3ccc(C(F)(F)F)cc3c2=O)CC[C@@H]1C(=O)c1ccc(OCC2CCCC2)cc1` (racemic) [Example 43, (+/−)-(1RS,2RS,5SR)-2-[4-(Cyclopentylmethoxy)benzoyl]-5-{[4-oxo-6-(trifluoromethyl)-1,2,3-benzotriazin-3(4H)-yl]methyl}cyclopentanecarboxylic acid], the IC50 falls from 33 nM to 0.039 nM (850-fold).

Going from `CCCOc1ccc(C(=O)[C@@H]2CC[C@H](Cn3nnc4ccc(C(F)(F)F)cc4c3=O)[C@H]2C(=O)O)cc1` (single isomer, unassigned) [Example 71, (−)-(1RS,2SR,5RS)-2-{[4-Oxo-6-(trifluoromethyl)-1,2,3-benzotriazin-3(4H)-yl]methyl}-5-(4-propoxybenzoyl)cyclopentanecarboxylic acid] to `Cc1ccc2nnn(C[C@H]3CC[C@@H](C(=O)c4ccc(OCCc5ccccc5)cc4)[C@@H]3C(=O)O)c(=O)c2c1` (single isomer, unassigned) [Example 113, (+)-(1RS,2SR,5RS)-2-[(6-Methyl-4-oxo-1,2,3-benzotriazin-3(4H)-yl)methyl]-5-[4-(2-phenylethoxy)benzoyl]cyclopentanecarboxylic acid], the IC50 falls from 2.7 nM to 0.24 nM (11-fold).

First: Cc1ccc2nnn(C[C@H]3CC[C@@H](C(=O)c4ccc(OCc5cccc(Cl)c5)cc4)[C@@H]3C(=O)O)c(=O)c2c1 (single isomer, unassigned) [Example 105, (−)-(1RS,2RS,5SR)-2-{4-[(3-Chlorobenzyl)oxy]benzoyl}-5-[(6-methyl-4-oxo-1,2,3-benzotriazin-3(4H)-yl)methyl]cyclopentanecarboxylic acid]
Second: O=C(O)[C@@H]1[C@@H](Cn2nnc3ccc(C(F)(F)F)cc3c2=O)CC[C@H]1C(=O)c1ccc(OCCC2CCCC2)cc1 (single isomer, unassigned) [Example 54, (−)-(1RS,2RS,5SR)-2-[4-(2-Cyclopentylethoxy)benzoyl]-5-{[4-oxo-6-(trifluoromethyl)-1,2,3-benzotriazin-3(4H)-yl]methyl}cyclopentanecarboxylic acid]
The IC50 of the first is 1.6-fold lower: 14 nM for the first, 22 nM for the second. The first is the more potent here.

First: CCCOc1ccc(C(=O)[C@H]2CC[C@@H](Cn3nnc4ccc(C(F)(F)F)cc4c3=O)[C@@H]2C(=O)O)cc1 (racemic) [Example 69, (+/−)-(1RS,2SR,5RS)-2-{[4-Oxo-6-(trifluoromethyl)-1,2,3-benzotriazin-3(4H)-yl]methyl}-5-(4-propoxybenzoyl)cyclopentanecarboxylic acid]
Second: O=C(O)[C@H]1[C@H](Cn2nnc3ccc(C(F)(F)F)cc3c2=O)CC[C@@H]1C(=O)c1ccc(OCCC2CCCC2)cc1 (racemic) [Example 53, (+/−)-(1RS,2RS,5SR)-2-[4-(2-Cyclopentylethoxy)benzoyl]-5-{[4-oxo-6-(trifluoromethyl)-1,2,3-benzotriazin-3(4H)-yl]methyl}cyclopentanecarboxylic acid]
The IC50 of the first is 3.5-fold higher: 0.094 nM for the first, 0.027 nM for the second. The second is the more potent here.

Compared with `O=C(O)[C@@H]1[C@@H](Cn2nnc3ccc(C(F)(F)F)cc3c2=O)CC[C@H]1C(=O)c1ccc(SCc2cccc(Cl)c2)cc1` (single isomer, unassigned) [Example 78, (−)-(1RS,2RS,5SR)-2-{4-[(3-Chlorobenzyl)sulphanyl]benzoyl}-5-{[4-oxo-6-(trifluoromethyl)-1,2,3-benzotriazin-3(4H)-yl]methyl}cyclopentanecarboxylic acid], `O=C(O)[C@@H]1[C@@H](Cn2nnc3ccc(C(F)(F)F)cc3c2=O)CC[C@H]1C(=O)c1ccc(OCC2CCC2)cc1` (single isomer, unassigned) [Example 48, (−)-(1RS,2RS,5SR)-2-[4-(Cyclobutylmethoxy)benzoyl]-5-{[4-oxo-6-(trifluoromethyl)-1,2,3-benzotriazin-3(4H)-yl]methyl}cyclopentanecarboxylic acid] is 33-fold higher in IC50: 8.8 nM for the first, 290 nM for the second. The first is the more potent here.

Work on `O=C(O)[C@H]1[C@H](Cn2nnc3ccc(C(F)(F)F)cc3c2=O)CC[C@@H]1C(=O)c1ccc(SCC2CCCCC2)cc1` (racemic) [Example 85] yielded an IC50 of 0.22 nM.
